A short description of this data set: gradient 5% acetonitrile 3 min, to 50% in 2 min, to 85% in 15 min, held 3 min, 100 µL/min. The following applies: column: Zorbax Extend-C18 2.1 x 50 mm; eluents: water / acetonitrile, 0.1% formic acid. The procedure, abridged: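 Over 3 months, pure standards in mixtures of ~100 molecules were run by HPLC coupled to a quadrupole time-of-flight mass spectrometer in positive and negative ionization mode. The column was a Zorbax Extend-C18 (2.1 × 50 mm, 1.8 μm) at 100 μL/min, eluted with water and acetonitrile each holding 0.1% formic acid, with 40 μL dead and 900 μL dwell volumes. Retention time was determined from adduct peaks chosen by software and checked manually.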
In turn, `O=C1NC2(CCN(C(=O)Nc3ccc(F)cc3)CC2)N=C1c1cccc(Cl)c1` had an RP-LC retention time of 872 s.

As for `Cc1nn(-c2nc(-c3ccc(F)cc3)cs2)c(C)c1CC(=O)Nc1ccccc1`, the RP-LC retention time was 1150 s.

`O=C(NC1CCCC1)N1CCC(Oc2ccc(-c3noc(C4CC4)n3)cc2)C1` (stereo not given) returned an RP-LC retention time of 904 s.

Take `Cc1nn(C(C)C)c(C)c1S(=O)(=O)N1CCN(C(=O)c2ccsc2)CC1`: the RP-LC retention time was 775 s.

Turning to `Cc1ccc(NC(=O)Cn2c(=O)c3cc(-c4cccs4)nn3c3ncccc32)cc1F`, the RP-LC retention time worked out at 924 s.

In turn, `CCn1c(=O)c(N2CCN(C(=O)Nc3cccc(Br)c3)CC2)nc2cccnc21` returned an RP-LC retention time of 1030 s.

`COC(=O)c1cccc(N2C=C(C#N)S(=O)(=O)c3cc(F)ccc32)c1` had an RP-LC retention time of 872 s.

Consider `CN1C(=O)c2cc(C(=O)NCCN3CCCC3)nn2CC1(C)C(=O)NCc1ccc(F)cc1` (stereo not given), for which the RP-LC retention time came out at 580 s.

In the case of `O=C(Cc1ccccc1F)N1CCCn2nc(-c3ccc(Cl)cc3)cc2C1`, the RP-LC retention time is 979 s.

The molecule `COc1ccc(-n2ccn3c(CCC(=O)NCCc4c[nH]c5ccccc45)nnc3c2=O)cc1` came in with an RP-LC retention time of 704 s.

In the case of `CCn1cnc(S(=O)(=O)N2CCCC(C(=O)Nc3cccc(CN4CCCC4)c3)C2)c1` (stereo not given), the RP-LC retention time was determined as 607 s.

`COc1ccc2nc(C(=O)NCc3ccccc3Cl)cn2n1`: the RP-LC retention time came to 830 s.

Turning to `CC(C)(C)OC(=O)Cn1cnc2c(-c3ccc(Br)cc3)csc2c1=O`, the RP-LC retention time turned out to be 1140 s.

With `Cc1ccc(F)cc1NC(=O)Cn1nc2cc(-c3ccccn3)nc(C)n2c1=O`, the RP-LC retention time came to 767 s.

Take `COc1ccccc1NC(=O)C1CCN(S(=O)(=O)c2cc(C(=O)N3CCOCC3)cs2)CC1`: the RP-LC retention time turned out to be 779 s.

`COc1cccc(CNC(=O)C2(C)CCCN(C(=O)Nc3ccc(C)cc3C)C2)c1` (stereo not given) showed an RP-LC retention time of 930 s.

As to `O=C(c1ccoc1)N1CCC2(CC1)N=C(c1cccc(Br)c1)NO2`, the RP-LC retention time was 763 s.

The molecule `CC(C)c1nc2c(c(=O)n1CC(=O)NCc1cccs1)CN(Cc1ccccc1)CC2` had an RP-LC retention time of 650 s.

In the case of `COc1ccc(Cl)cc1NC(=O)Nc1ccc2c(c1)N(C)C(=O)C(C)(C)CO2`, the RP-LC retention time stood at 981 s.

In turn, `CC(=O)Nc1ccc(C(=O)N2CCCCCC2)o1` came in with an RP-LC retention time of 665 s.

For `O=C(Nc1cnn(-c2ncncc2N2CCSCC2)c1)C1CCCCC1`, the RP-LC retention time turned out to be 778 s.

`CN(Cc1nc(-c2ccc(N3CCCC3)nc2)no1)C1CCCCC1` yielded an RP-LC retention time of 569 s.

In turn, `O=C(C1CCCN(c2nccnc2Sc2ccccc2)C1)N1CCCCCC1` (stereo not given) registered an RP-LC retention time of 1120 s.

`COC(=O)c1cc(N2CCN(C)CC2)nc2c(C)cccc12` displayed an RP-LC retention time of 670 s.

As to `CCc1cccc(NC(=O)Cn2cnc3nc(N4CCCC(C(=O)NC(C)C)C4)sc3c2=O)c1` (stereo not given), the RP-LC retention time came out at 755 s.

For `CS(=O)(=O)NC1CCN(C(=O)C2CCCC2)C1` (stereo not given), the RP-LC retention time is 691 s.

`O=C(NCc1ccc(-n2ccnc2)cc1)c1ccccc1C(F)(F)F` had an RP-LC retention time of 610 s.

`Cc1cccc2c(=O)n(C3CCN(S(=O)(=O)c4ccc(C(C)C)cc4)CC3)cnc12` gave an RP-LC retention time of 1120 s.

On to `O=C(c1ccc(-c2noc(C3CC3)n2)cc1)N1CCCN(c2nc3ncccc3o2)CC1`, for which the RP-LC retention time was found to be 760 s.

As to `CCn1cnc(S(=O)(=O)N2CCCC(C(=O)Nc3ccc(Cl)cc3C)C2)c1` (stereo not given), the RP-LC retention time is 795 s.

Regarding `Cc1cccc(N2CCN(c3cc(C(=O)O)c4cc(NC(=O)C(C)(C)C)ccc4n3)CC2)c1C`, the RP-LC retention time was 774 s.

Molecule `Cn1c(C(=O)Nc2cccc(Cl)c2)cc2c(=O)oc3ccccc3c21` came in with an RP-LC retention time of 1050 s.

`O=C(NC1CCCCCC1)c1ccc(Cn2cncn2)cc1` displayed an RP-LC retention time of 714 s.

`COC(=O)c1cnc2nc(C)ccc2c1Nc1ccc(C)c(F)c1` had an RP-LC retention time of 696 s.

Molecule `CCCc1nc(-c2ccccc2)oc1CC(=O)Nc1cccc(Cl)c1C` gave an RP-LC retention time of 1080 s.

`COc1ccc(OC)c(NC(=O)N2CCN(Cc3nc4cc(C)ccc4o3)CC2)c1`: the RP-LC retention time was determined as 721 s.

`O=C(NC1CCCC1)C1c2cccn2CC(=O)N1Cc1ccc(Cl)cc1` (stereo not given) returned an RP-LC retention time of 905 s.

Molecule `COc1ccc(C2(C(=O)N3[C@H]4CC[C@@H]3c3cnc(C)nc3C4)CCCCC2)cc1` displayed an RP-LC retention time of 812 s.

`O=C(Cn1ncc2c(c1=O)N(CC1CC1)C(=O)CS2)NCc1ccc(F)cc1` had an RP-LC retention time of 750 s.

For `CCOc1ccc(-c2cc3c(=O)n(Cc4nc(-c5ccccc5Br)no4)ncn3n2)cc1`, the RP-LC retention time worked out at 1160 s.

`COCCCNC(=O)C1c2ccccc2C(=O)N1CCCc1ccccc1` (stereo not given) returned an RP-LC retention time of 761 s.

The molecule `CCCNC(=O)CC1CCN(C(=O)c2[nH]c(C)cc2C)CC1` registered an RP-LC retention time of 661 s.

In the case of `CC(C)Cn1cc(CCNC(=O)c2ccc(C(F)(F)F)cc2)c2cccnc21`, the RP-LC retention time is 940 s.

On to `O=C(NCc1ccc(N2CCCC2)cc1)c1sc2ncccc2c1-n1cccc1`, for which the RP-LC retention time worked out at 1130 s.

Molecule `CCOC(=O)c1c(C)c(C(=O)C(C)N(CC)C(=O)c2ccccc2Cl)c(C)n1CC` (stereo not given) gave an RP-LC retention time of 1050 s.

`CC(C)CC(=O)N1CCC2(CC1)c1nccn1-c1ccccc1CN2C` gave an RP-LC retention time of 580 s.

For `Cc1cc(Br)ccc1NC(=O)c1cc2n(n1)CCCC2`, the RP-LC retention time worked out at 993 s.

In turn, `COc1ccc(Cl)cc1NS(=O)(=O)c1cc(-c2cc(C(F)(F)F)[nH]n2)sc1C` showed an RP-LC retention time of 1060 s.

For the molecule `CN(C(=O)c1cc(-c2cccs2)n(C2CCS(=O)(=O)C2)n1)C1CCS(=O)(=O)C1` (stereo not given), the RP-LC retention time came out at 662 s.

With `O=C(Nc1ncnc2c1CCC2)c1ccc(S(=O)(=O)N2CCc3ccccc3C2)cc1`, the RP-LC retention time stood at 783 s.

Regarding `COc1ccc(OC)c(NC(=O)C2CCCN(c3cnc4nccnc4c3)C2)c1` (stereo not given), the RP-LC retention time stood at 730 s.

Molecule `CC(C)CCn1c(CN(C)C(=O)c2ccco2)nc2ccccc21` showed an RP-LC retention time of 718 s.

Consider `O=C(NCc1cccnc1)c1cccn1Cc1noc(-c2ccc(Cl)cc2)n1`, for which the RP-LC retention time is 701 s.

As for `CCN1C(=O)NC(c2cccc(F)c2)C2=C1CN(CCC(=O)NCCOC)C2=O` (stereo not given), the RP-LC retention time came to 586 s.

`CCOC(=O)c1ccc2c(c1)NCc1cccc(OC)c1O2` returned an RP-LC retention time of 1030 s.

Take `COc1ccc(CC(=O)Nc2nnc(SCc3nnc(-c4ccccc4C)o3)s2)cc1`: the RP-LC retention time worked out at 923 s.

For `Cc1ccc(NS(=O)(=O)c2ccc3c(c2)CCCC(=O)N3)cc1Cl`, the RP-LC retention time turned out to be 806 s.

Regarding `CC(C)CC(=O)N1CCC(C(=O)N2CCCCCCNC(=O)CC2)CC1`, the RP-LC retention time was 640 s.

In the case of `COc1ccccc1C(=O)NCCc1c[nH]c2ccc(F)cc12`, the RP-LC retention time stood at 842 s.

As for `COc1ccc(S(=O)(=O)N2CCOC2CNC(=O)C(=O)NCc2ccccn2)cc1C` (stereo not given), the RP-LC retention time was 603 s.

With `CC1(C)CC(=O)c2cn(-c3ccccc3)c(=O)c(C(=O)NC3CCCCC3)c2C1`, the RP-LC retention time was found to be 1010 s.

Molecule `Cc1ccc2c(c1)cc(S(=O)(=O)c1ccccc1)c(=O)n2CC(=O)NC(C)C` gave an RP-LC retention time of 808 s.

Turning to `CCNc1cc(N2CCC(CCC(=O)N3CCCN(c4ncccn4)CC3)CC2)ncn1`, the RP-LC retention time was found to be 596 s.

`CCN1CCCn2cc(S(=O)(=O)Nc3ccc(C)c(F)c3)cc2C1=O` displayed an RP-LC retention time of 754 s.

`Cc1ccc2c(Nc3ccccc3Cl)c(-c3nc(C)no3)cnc2n1`: the RP-LC retention time turned out to be 821 s.

Take `Cc1cccc(C)c1-n1ccn(Cc2nc(-c3ccc(C(C)(C)C)cc3)no2)c(=O)c1=O`: the RP-LC retention time stood at 1120 s.

The molecule `Cc1ccn2cc(-c3ccc(NS(=O)(=O)c4ccc5ccccc5c4)cc3)nc2n1` showed an RP-LC retention time of 690 s.

The molecule `CC(C)OCCCNC(=O)C1CC(=O)N(c2n[nH]c3cc(Br)ccc23)C1` (stereo not given) showed an RP-LC retention time of 690 s.

`COC1C(=O)N(c2cccc(F)c2)C12CCN(C(=O)Nc1ccccc1)CC2` (stereo not given) displayed an RP-LC retention time of 878 s.

Consider `O=C(c1cc2ccccc2[nH]1)N1CCOCC1`, for which the RP-LC retention time came out at 713 s.

For the molecule `CN(C)C(=O)c1n[nH]c2c1CN(C(=O)c1ccc(Br)cc1)CC2`, the RP-LC retention time is 634 s.

In the case of `CCCNC(=O)c1ccc2ncnc(N3CCCC3)c2c1`, the RP-LC retention time was determined as 576 s.

`CCOc1ccc(CC(=O)Nc2cc3c(cc2N(C)C)n(C)c(=O)c(=O)n3C)cc1OCC` gave an RP-LC retention time of 763 s.

For `O=C(c1ccoc1)N1CCCC1c1nc(-c2ccc(F)cc2F)no1` (stereo not given), the RP-LC retention time worked out at 869 s.

In turn, `CCN1CCN(c2ccc(NC(=O)c3ccc(Cl)s3)cn2)C1=O` registered an RP-LC retention time of 742 s.

Regarding `CCc1nn2c(CNS(=O)(=O)c3cccc(C)c3)c(-c3ccccc3)nc2s1`, the RP-LC retention time came out at 973 s.

Molecule `CCS(=O)(=O)c1nc2ccc(NS(=O)(=O)c3ccccc3)cc2s1` gave an RP-LC retention time of 838 s.

`Cc1ccc2c(Nc3cc(F)ccc3F)c(C(=O)N3CCCC3)cnc2n1` yielded an RP-LC retention time of 584 s.

`Cc1cc2n(n1)CCC(=O)N2CCCC(=O)NC1CCCCC1` showed an RP-LC retention time of 661 s.

For the molecule `O=C(NCc1ccccc1)C1CCN(c2cnc(N3CCCC3)nc2)CC1`, the RP-LC retention time amounted to 639 s.

The values above are taken from the METLIN SMRT retention time set (Domingo-Almenara et al. 2019).
